In patent publication US9695155B2, “Herbicidal substituted pyrimidinyloxy benzene compounds” (E. I. DU PONT DE NEMOURS AND COMPANY, priority 2013, dated 2017):

Key:
wheat = experiment: Test A preemergence; type: in vivo, Triticum aestivum; details: for Plant response rating, Wheat / Wheat plant response rating (0 to 100 scale): 125 g ai/ha; for Plant response rating, Wheat / Wheat plant response rating: 0 to 100 scale where 0 is no effect and 100 is complete control
Method in brief: (§1)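 Greenhouse pot test, loam/sand soil. Formulation: non-phytotoxic solvent mix plus surfactant. Pre: directed spray onto soil after sowing. Post: plants at 1–2 leaf, 2–10 cm. Rated visually vs untreated controls at ~10 d, 0 (no effect) to 100 (complete control).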

giant foxtail = experiment: Test A postemergence; type: in vivo, Setaria faberii
Method in brief: as §1

pigweed = experiment: Test A postemergence; type: in vivo, Amaranthus retroflexus
Method in brief: as §1

corn [1] = experiment: Test A postemergence; type: in vivo, Zea mays
Method in brief: as §1

galium = experiment: Test C preemergence; type: in vivo, Galium aparine
Method in brief: (§2)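 Sown in loam/sand → sprayed pre-emergence; or grown to 1–4 leaves in peat mix → sprayed post-emergence. Same solvent/surfactant formulation both ways. Greenhouse 13–15 d. Score 0–100 visual.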

corn [2] = experiment: Test C preemergence; type: in vivo, Zea mays
Method in brief: as §2

lambsquarters = experiment: Test C preemergence; type: in vivo, Chenopodium album
Method in brief: as §2

morningglory = experiment: Test C preemergence; type: in vivo, Ipomoea coccinea
Method in brief: as §2

ragweed = experiment: Test C preemergence; type: in vivo, Ambrosia elatior
Method in brief: as §2

velvetleaf = experiment: Test C preemergence; type: in vivo, Abutilon theophrasti
Method in brief: as §2

[3] = 125 g ai/ha, 0 to 100 scale where 0 is no effect and 100 is complete control
[4] = 500 g ai/ha, 0 to 100 scale where 0 is no effect and 100 is complete control
[5] = 16 g ai/ha, preemergence, scale 0 to 100 (0 no effect, 100 complete control)
[6] = 62 g ai/ha, preemergence, scale 0 (no effect) to 100 (complete control)
[7] = 125 g ai/ha, preemergence, scale 0 (no effect) to 100 (complete control)
[8] = Preemergence, 31 g ai/ha, scale 0 to 100, 0 no effect, 100 complete control
[9] = Preemergence, 62 g ai/ha, scale 0 to 100, 0 no effect, 100 complete control

FC(F)(F)c1cnn(-c2ccccc2Oc2ncc(Br)cn2)c1 [Compound 18, 5-bromo-2-[2-[4-(trifluoromethyl)-1H-pyrazol-1-yl]phenoxy]pyrimidine]
Plant response rating, Wheat (wheat): 0 | plant injury at 500 g/ha (wheat; Triticum aestivum, pre-emergence, 240 h, 500 g ai/ha, 0 to 100 scale, 0 no effect, 100 complete control, approx. 10 days, read-out: Wheat plant response rating): 70% | pest or weed control at 125 g/ha (giant foxtail; Setaria faberi, post-emergence, 240 h, 125 g ai/ha, 0 to 100 scale where 0 is no effect and 100 is complete control, read-out: Plant response rating, Foxtail, Giant): 80% | pest or weed control at 500 g/ha (giant foxtail; Setaria faberi, post-emergence, 240 h, 500 g ai/ha, 0 to 100 scale, 0 no effect, 100 complete control, read-out: Plant response rating Foxtail, Giant): 100% | pest or weed control at 125 g/ha (pigweed; Amaranthus retroflexus, post-emergence, 125 g ai/ha, 0 to 100 scale where 0 is no effect and 100 is complete control, read-out: Plant response rating, Pigweed): 100% | pest or weed control at 500 g/ha (pigweed; Amaranthus retroflexus, post-emergence, 240 h, 500 g ai/ha, 0 to 100 scale, 0 no effect, 100 complete control, read-out: Plant response rating Pigweed): 100% | Corn plant response rating (crop injury, 0 = no effect, 100 = complete kill) at 125 g/ha (corn [1]; Zea mays, post-emergence, 240 h, 125 g ai/ha, 0 to 100 scale where 0 is no effect and 100 is complete control): 30% | plant injury at 500 g/ha (corn [1]; Zea mays, post-emergence, 240 h, 500 g ai/ha, 0 to 100 scale, 0 no effect, 100 complete control, read-out: Plant response rating Corn): 90% | pest or weed control at 62 g/ha (galium; Galium, pre-emergence, 62 g ai/ha, preemergence, scale 0 (no effect) to 100 (complete control), read-out: Galium plant response rating): 95% | pest or weed control at 125 g/ha (galium; Galium, pre-emergence, 125 g ai/ha, preemergence, scale 0 (no effect) to 100 (complete control), read-out: Galium plant response rating): 100% | pest or weed control at 250 g/ha (galium; Galium, pre-emergence, 250 g ai/ha, preemergence, scale 0 (no effect) to 100 (complete control), read-out: Galium plant response rating): 100% | pest or weed control at 31 g/ha (galium; Galium, pre-emergence, Preemergence, 31 g ai/ha, scale 0 to 100, 0 no effect, 100 complete control, read-out: Plant response rating, Galium): 90% | plant injury at 62 g/ha (corn [2]; Zea mays, pre-emergence, 62 g ai/ha, preemergence, scale 0 (no effect) to 100 (complete control), read-out: Corn plant response rating): 10% | plant injury at 125 g/ha (corn [2]; Zea mays, pre-emergence, 125 g ai/ha, preemergence, scale 0 (no effect) to 100 (complete control), read-out: Corn plant response rating): 10% | plant injury at 250 g/ha (corn [2]; Zea mays, pre-emergence, 250 g ai/ha, preemergence, scale 0 (no effect) to 100 (complete control), read-out: Corn plant response rating): 35% | Corn plant response rating (crop injury, 0 = no effect, 100 = complete kill) at 31 g/ha (corn [2]; Zea mays, pre-emergence, Preemergence, 31 g ai/ha, scale 0 to 100, 0 no effect, 100 complete control): 0% | pest or weed control at 62 g/ha (lambsquarters; Chenopodium album, pre-emergence, 62 g ai/ha, preemergence, scale 0 (no effect) to 100 (complete control), read-out: Lambsquarters plant response rating): 50% | pest or weed control at 125 g/ha (lambsquarters; Chenopodium album, pre-emergence, 125 g ai/ha, preemergence, scale 0 (no effect) to 100 (complete control), read-out: Lambsquarters plant response rating): 65% | pest or weed control at 250 g/ha (lambsquarters; Chenopodium album, pre-emergence, 250 g ai/ha, preemergence, scale 0 (no effect) to 100 (complete control), read-out: Lambsquarters plant response rating): 80% | pest or weed control at 31 g/ha (lambsquarters; Chenopodium album, pre-emergence, Preemergence, 31 g ai/ha, scale 0 to 100, 0 no effect, 100 complete control, read-out: Plant response rating, Lambsquarters): 30% | pest or weed control at 62 g/ha (morningglory; Ipomoea, pre-emergence, 62 g ai/ha, preemergence, scale 0 (no effect) to 100 (complete control), read-out: Morningglory plant response rating): 30% | pest or weed control at 125 g/ha (morningglory; Ipomoea, pre-emergence, 125 g ai/ha, preemergence, scale 0 (no effect) to 100 (complete control), read-out: Morningglory plant response rating): 80% | pest or weed control at 250 g/ha (morningglory; Ipomoea, pre-emergence, 250 g ai/ha, preemergence, scale 0 (no effect) to 100 (complete control), read-out: Morningglory plant response rating): 98% | pest or weed control at 31 g/ha (morningglory; Ipomoea, pre-emergence, Preemergence, 31 g ai/ha, scale 0 to 100, 0 no effect, 100 complete control, read-out: Plant response rating, Morningglory): 10% | pest or weed control at 62 g/ha (ragweed; Ambrosia artemisiifolia, pre-emergence, 62 g ai/ha, preemergence, scale 0 (no effect) to 100 (complete control), read-out: Ragweed plant response rating): 0% | pest or weed control at 125 g/ha (ragweed; Ambrosia artemisiifolia, pre-emergence, 125 g ai/ha, preemergence, scale 0 (no effect) to 100 (complete control), read-out: Ragweed plant response rating): 10% | pest or weed control at 250 g/ha (ragweed; Ambrosia artemisiifolia, pre-emergence, 250 g ai/ha, preemergence, scale 0 (no effect) to 100 (complete control), read-out: Ragweed plant response rating): 30% | pest or weed control at 31 g/ha (ragweed; Ambrosia artemisiifolia, pre-emergence, Preemergence, 31 g ai/ha, scale 0 to 100, 0 no effect, 100 complete control, read-out: Plant response rating, Ragweed): 0% | pest or weed control at 62 g/ha (velvetleaf; Abutilon theophrasti, pre-emergence, 62 g ai/ha, preemergence, scale 0 (no effect) to 100 (complete control), read-out: Velvetleaf plant response rating): 100% | pest or weed control at 125 g/ha (velvetleaf; Abutilon theophrasti, pre-emergence, 125 g ai/ha, preemergence, scale 0 (no effect) to 100 (complete control), read-out: Velvetleaf plant response rating): 100% | pest or weed control at 250 g/ha (velvetleaf; Abutilon theophrasti, pre-emergence, 250 g ai/ha, preemergence, scale 0 (no effect) to 100 (complete control), read-out: Velvetleaf plant response rating): 100% | pest or weed control at 31 g/ha (velvetleaf; Abutilon theophrasti, pre-emergence, Preemergence, 31 g ai/ha, scale 0 to 100, 0 no effect, 100 complete control, read-out: Plant response rating, Velvetleaf): 60%

Fc1cnc(Oc2cccc(C(F)F)c2-n2cc(Br)cn2)nc1 [Compound 112]
Plant response rating, Wheat (wheat): 0 | Plant response rating, Foxtail, Giant (giant foxtail; [3]): 30 | Plant response rating, Foxtail, Giant (giant foxtail; [4]): 90 | Plant response rating, Pigweed (pigweed; [4]): 100 | Plant response rating, Corn (corn [1]; [3]): 30 | Plant response rating, Corn (corn [1]; [4]): 70 | Galium plant response rating (galium; [5]): 55 | Galium plant response rating (galium; [6]): 100 | Galium plant response rating (galium; [7]): 95 | Plant response rating, Galium (galium; [8]): 98 | Corn plant response rating (corn [2]; [5]): 0 | Corn plant response rating (corn [2]; [6]): 5 | Corn plant response rating (corn [2]; [7]): 20 | Plant response rating, Corn (corn [2]; [8]): 0 | Lambsquarters plant response rating (lambsquarters; [5]): 98 | Lambsquarters plant response rating (lambsquarters; [6]): 100 | Lambsquarters plant response rating (lambsquarters; [7]): 98 | Plant response rating, Lambsquarters (lambsquarters; [8]): 100 | Morningglory plant response rating (morningglory; [5]): 5 | Morningglory plant response rating (morningglory; [6]): 65 | Morningglory plant response rating (morningglory; [7]): 75 | Plant response rating, Morningglory (morningglory; [8]): 15 | Ragweed plant response rating (ragweed; [5]): 0 | Ragweed plant response rating (ragweed; [6]): 35 | Ragweed plant response rating (ragweed; [7]): 100 | Plant response rating, Ragweed (ragweed; [8]): 0 | Velvetleaf plant response rating (velvetleaf; [5]): 65 | Velvetleaf plant response rating (velvetleaf; [6]): 100 | Velvetleaf plant response rating (velvetleaf; [7]): 100 | Plant response rating, Velvetleaf (velvetleaf; [8]): 70

Fc1cccc(Oc2ncc(Cl)cn2)c1-n1cc(I)cn1 [Compound 179]
Wheat plant response rating (0 to 100 scale) (wheat): 0 | Wheat plant response rating (wheat; 500 g ai/ha): 30 | Foxtail, Giant plant response rating (giant foxtail; [3]): 80 | Plant response rating, Foxtail, Giant (giant foxtail; [4]): 90 | Pigweed plant response rating (pigweed; [3]): 100 | Plant response rating, Pigweed (pigweed; [4]): 100 | Corn plant response rating (corn [1]; [3]): 30 | Plant response rating, Corn (corn [1]; [4]): 60 | Galium plant response rating (galium; [5]): 90 | Galium plant response rating (galium; [6]): 98 | Galium plant response rating (galium; [7]): 100 | Plant response rating, Galium (galium; [8]): 95 | Corn plant response rating (corn [2]; [5]): 0 | Corn plant response rating (corn [2]; [6]): 5 | Corn plant response rating (corn [2]; [7]): 15 | Plant response rating, Corn (corn [2]; [8]): 5 | Lambsquarters plant response rating (lambsquarters; [5]): 85 | Lambsquarters plant response rating (lambsquarters; [6]): 100 | Lambsquarters plant response rating (lambsquarters; [7]): 100 | Morningglory plant response rating (morningglory; [5]): 10 | Morningglory plant response rating (morningglory; [6]): 35 | Morningglory plant response rating (morningglory; [7]): 90 | Ragweed plant response rating (ragweed; [5]): 0 | Ragweed plant response rating (ragweed; [6]): 0 | Ragweed plant response rating (ragweed; [7]): 10 | Velvetleaf plant response rating (velvetleaf; [5]): 60 | Velvetleaf plant response rating (velvetleaf; [6]): 98 | Velvetleaf plant response rating (velvetleaf; [7]): 100

CCOc1cnn(-c2ccccc2Oc2ncc(Cl)cn2)c1 [Compound 187]
Wheat plant response rating (0 to 100 scale) (wheat): 0 | Wheat plant response rating (wheat; 500 g ai/ha): 40 | Foxtail, Giant plant response rating (giant foxtail; [3]): 60 | Plant response rating, Foxtail, Giant (giant foxtail; [4]): 90 | Pigweed plant response rating (pigweed; [3]): 70 | Plant response rating, Pigweed (pigweed; [4]): 100 | Corn plant response rating (corn [1]; [3]): 10 | Plant response rating, Corn (corn [1]; [4]): 70 | Galium plant response rating (galium; [5]): 30 | Galium plant response rating (galium; [7]): 98 | Plant response rating, Galium (galium; [9]): 90 | Corn plant response rating (corn [2]; [5]): 0 | Corn plant response rating (corn [2]; [7]): 5 | Plant response rating, Corn (corn [2]; [9]): 5 | Lambsquarters plant response rating (lambsquarters; [5]): 5 | Lambsquarters plant response rating (lambsquarters; [7]): 100 | Plant response rating, Lambsquarters (lambsquarters; [9]): 98 | Morningglory plant response rating (morningglory; [5]): 0 | Morningglory plant response rating (morningglory; [7]): 5 | Plant response rating, Morningglory (morningglory; [9]): 0 | Ragweed plant response rating (ragweed; [5]): 55 | Ragweed plant response rating (ragweed; [7]): 55 | Plant response rating, Ragweed (ragweed; [9]): 45 | Velvetleaf plant response rating (velvetleaf; [5]): 25 | Velvetleaf plant response rating (velvetleaf; [7]): 100 | Plant response rating, Velvetleaf (velvetleaf; [9]): 95
